{"source": "patent US10792284B2", "about": "“Synergistic cancer treatment” (Memorial Sloan Kettering Cancer Center, priority 2015, dated 2020)", "key": {"[1]": {"system": "KRAS-mutant lung cancer cell lines", "assay": "Clonogenic assay", "assay_type": "cell-based, human", "settings": "for sensitization to trametinib (MEK inhibition) in combination: combined with trametinib, KRAS-mutant lung cancer cell lines", "procedure": "All experiments were performed at least three times. Representative experiments are shown."}, "[2]": {"system": "BRAF and KRAS-mutant cancers of multiple lineages", "settings": "GDSC dataset; BRAF-mutant compared with KRAS-mutant tumor cells; cited from earlier work"}}, "note": "Entries after “also recorded” stand apart in the source; their conditions may differ.", "data": [{"compound": "CCN1CCN(c2ccc(Nc3cc(N(C)C(=O)Nc4c(Cl)c(OC)cc(OC)c4Cl)ncn3)cc2)CC1", "note": "[BGJ398]", "values": [{"measurement": "sensitization to trametinib (MEK inhibition) in combination", "setting": "[1]", "result": "comparable effects; also recorded: confer sensitivity to MEK inhibition"}]}, {"compound": "COCC(=O)NC/C=C/c1ccc2ncnc(Nc3ccc(Oc4ccc(C)nc4)c(C)c3)c2c1", "note": "[CP724714]", "values": [{"measurement": "synergy when combined with Trametinib", "setting": "[1]; H23 cells, combined with Trametinib", "result": "no synergy"}]}, {"compound": "O=C(NOC[C@H](O)CO)c1ccc(F)c(F)c1Nc1ccc(I)cc1F", "note": "[PD0325901]", "values": [{"measurement": "sensitivity to MEK inhibitor (IC50), BRAF-mutant versus KRAS-mutant tumor cells", "setting": "[2]", "result": "significantly more sensitive"}]}, {"compound": "COc1cc(F)c(F)c(Nc2ccc(I)cc2F)c1NS(=O)(=O)C1(C[C@H](O)CO)CC1", "note": "[RDEA119]", "values": [{"measurement": "sensitivity to MEK inhibitor (IC50), BRAF-mutant versus KRAS-mutant tumor cells", "setting": "[2]", "result": "significantly more sensitive"}]}, {"compound": "O=C(Nc1ccc2[nH]nc(-c3ccncc3)c2c1)[C@@H]1CCN(CC(=O)N2CCN(c3ccc(-c4ncccn4)cc3)CC2)C1", "note": "[SCH772984]", "values": [{"measurement": "effect of co-treatment on antiproliferative effects of Trametinib", "setting": "[1]; co-treatment with Trametinib compared with Trametinib alone", "result": "enhances the antiproliferative effects of trametinib"}]}, {"compound": "AZD4547", "values": [{"measurement": "sensitization to trametinib (MEK inhibition) in combination", "setting": "[1]", "result": "comparable effects; also recorded: confer sensitivity to MEK inhibition"}]}]}
